Experimental findings from PMC9103758 (International Journal of Molecular Sciences, 2022) are described below.

Usually IC50 stands for the concentration that inhibits the measured activity by half.

Values joined by “and” are separate entries in the source; they are usually repeats but may differ in a detail not shown here. Equal values may be shown once.

For one assay, the target named is T1, ANO1 (Homo sapiens, UniProt Q5XXA6, DEL476-501).
T1 construct: expressed in transfected cells; host or cells: Fisher rat thyroid (FRT) cells; The YFP assay uses FRT-ANO1-YFP cells, which also carry the halide sensor
T1 sequence (Q5XXA6 with tags, fused parts or gaps isoform Q5XXA6-5 DEL539-564): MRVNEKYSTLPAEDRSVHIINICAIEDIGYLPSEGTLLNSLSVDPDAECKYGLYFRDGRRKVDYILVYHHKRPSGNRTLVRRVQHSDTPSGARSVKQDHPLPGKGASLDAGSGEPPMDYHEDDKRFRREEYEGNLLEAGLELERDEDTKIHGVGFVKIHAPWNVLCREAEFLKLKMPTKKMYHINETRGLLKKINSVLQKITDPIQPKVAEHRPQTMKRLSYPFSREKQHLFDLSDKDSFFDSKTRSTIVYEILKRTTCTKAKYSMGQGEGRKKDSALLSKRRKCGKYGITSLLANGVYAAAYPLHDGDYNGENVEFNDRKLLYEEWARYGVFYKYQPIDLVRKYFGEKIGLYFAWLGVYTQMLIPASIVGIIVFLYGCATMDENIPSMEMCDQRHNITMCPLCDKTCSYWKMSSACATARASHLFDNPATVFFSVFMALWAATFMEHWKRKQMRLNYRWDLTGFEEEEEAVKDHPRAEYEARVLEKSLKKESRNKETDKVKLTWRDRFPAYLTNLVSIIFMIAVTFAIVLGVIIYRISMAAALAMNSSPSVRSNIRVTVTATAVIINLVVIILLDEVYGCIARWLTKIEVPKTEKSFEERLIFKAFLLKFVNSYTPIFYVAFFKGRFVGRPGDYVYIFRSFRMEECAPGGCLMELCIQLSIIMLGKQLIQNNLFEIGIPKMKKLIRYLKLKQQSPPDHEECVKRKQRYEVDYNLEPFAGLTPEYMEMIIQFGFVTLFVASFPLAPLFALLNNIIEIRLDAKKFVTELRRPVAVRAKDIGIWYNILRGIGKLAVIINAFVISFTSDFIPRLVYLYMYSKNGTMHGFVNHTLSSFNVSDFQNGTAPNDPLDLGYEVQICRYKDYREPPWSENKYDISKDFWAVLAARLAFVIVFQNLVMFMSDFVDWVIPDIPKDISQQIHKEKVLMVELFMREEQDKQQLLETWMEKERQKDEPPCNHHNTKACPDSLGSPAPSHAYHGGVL
Put plainly: YFP fluorescence quenching assay for ANO1 activity in FRT-ANO1 cells. The assay is classed as cell-based. Conditions: ATP 100 μM, n = 4. As to the method:
Figure 2 Inhibitory effects of VI-101, VI-201 and VI-301 on VRAC and ANO1. (A–C) Representative YFP fluorescence traces for VRAC activity. LN215 cells were treated with the indicated concentrations of VI-101, VI-201 and VI-301 with hypotonic solution for 5 min. (D) Dose-response curve of VRAC inhibition (mean ± S.E., n = 4). (E–G) Representative YFP fluorescence traces for ANO1 activity. […]. (H) Dose-response curve of ANO1 inhibition (mean ± S.E., n = 4).
Human ANO1(abc) expressing Fisher rat thyroid (FRT) cells, ANO2 expressing FRT cells, and human CFTR expressing FRT cells were cultured as described in a previous study. LN215 cells were stably transfected with the halide sensor YFP-F46L/H148Q/I152 and NIH-3T3 cells cultured in DMEM were supplemented with 10% FBS, 2 mM L-glutamine, 100 units/mL penicillin, and 100 μg/mL streptomycin. HEK293T cells were stably transfected with the human Kv11.1 (hERG) and cultured in DMEM supplemented with 10% FBS, 2 mM L-glutamine, 100 units/mL penicillin, and 100 μg/mL streptomycin. PC3, HT29, and HeLa cells were stably transfected with the halide sensor YFP-F46L/H148Q/I152 and cultured in RPMI 1640 supplemented with 10% FBS, 2 mM L-glutamine, 100 units/mL penicillin, and 100 μg/mL streptomycin. […]
Compound `O=c1oc2ccccc2c(O)c1C(c1cc([N+](=O)[O-])ccc1Cl)c1c(O)c2ccccc2oc1=O` [VI-101] came in with an IC50 of 3.2 µM. For the compound `O=c1oc2ccccc2c(O)c1C(c1ccc(Cl)c([N+](=O)[O-])c1)c1c(O)c2ccccc2oc1=O` [VI-102], the IC50 amounted to 3 µM. Same read-out and setting: as for `O=c1oc2ccccc2c(O)c1C(c1cc([N+](=O)[O-])c(Cl)cc1Cl)c1c(O)c2ccccc2oc1=O` [VI-103], the figure is 3.2 µM; as for `O=c1oc2ccccc2c(O)c1C(c1cc([N+](=O)[O-])cc([N+](=O)[O-])c1Cl)c1c(O)c2ccccc2oc1=O` [VI-104], 37.9 µM.

On to `O=c1oc2ccccc2c(O)c1C(c1cccc([N+](=O)[O-])c1)c1c(O)c2ccccc2oc1=O` [VI-105], for which it took 3.8 µM to reach half-maximal inhibition (IC50). On the same count and under the same terms, in the case of `CN(C)c1ccc(C(c2c(O)c3ccccc3oc2=O)c2c(O)c3ccccc3oc2=O)cc1[N+](=O)[O-]` [VI-106] it was 3.6 µM; in that of `O=c1oc2ccccc2c(O)c1C(c1ccccc1)c1c(O)c2ccccc2oc1=O` [VI-107], 95.2 µM. On the same count and under the same terms, in the case of `O=c1oc2ccccc2c(O)c1C(c1ccncc1)c1c(O)c2ccccc2oc1=O` [VI-108] it was 34.7 µM; in that of `O=c1oc2ccccc2c(O)c1C(c1ccccc1Cl)c1c(O)c2ccccc2oc1=O` [VI-109], 2 µM.

`O=c1oc2ccccc2c(O)c1C(c1ccccc1F)c1c(O)c2ccccc2oc1=O` [VI-110] gave an IC50 of 4.8 µM.

In turn, `CCN(CC)c1ccc(C(c2c(O)c3ccccc3oc2=O)c2c(O)c3ccccc3oc2=O)cc1` [VI-111] yielded an IC50 of 3.2 µM. Same read-out and setting: in the case of `CC(C)Oc1ccc(C(c2c(O)c3ccccc3oc2=O)c2c(O)c3ccccc3oc2=O)cc1` [VI-112] it was 0.8 µM; in that of `O=c1oc2ccccc2c(O)c1C(c1ccc2c(c1)OCO2)c1c(O)c2ccccc2oc1=O` [VI-113], 3.9 µM; in that of `O=c1oc2ccccc2c(O)c1C(c1cc2c(cc1[N+](=O)[O-])OCO2)c1c(O)c2ccccc2oc1=O` [VI-114], 20.3 µM. On the same count and under the same terms, as for `O=c1oc2ccccc2c(O)c1C(c1ccc(O)c(O)c1)c1c(O)c2ccccc2oc1=O` [VI-115], the figure is 61.6 µM; as for `CCOc1cc(C(c2c(O)c3ccccc3oc2=O)c2c(O)c3ccccc3oc2=O)ccc1O` [VI-117], 14.2 µM; as for `COc1ccc(C(c2c(O)c3ccccc3oc2=O)c2c(O)c3ccccc3oc2=O)cc1OC` [VI-118], 14.2 µM.

Compound `CCOc1ccc(C(c2c(O)c3ccccc3oc2=O)c2c(O)c3ccccc3oc2=O)cc1OC` [VI-119] showed an IC50 of 4.9 µM.

`COc1cc(OC)cc(C(c2c(O)c3ccccc3oc2=O)c2c(O)c3ccccc3oc2=O)c1` [VI-120] came in with an IC50 of 3.9 µM.

Another assay deals with T2, VRAC (Homo sapiens, UniProt Q8IWT6).
T2 sequence (Q8IWT6 1-810): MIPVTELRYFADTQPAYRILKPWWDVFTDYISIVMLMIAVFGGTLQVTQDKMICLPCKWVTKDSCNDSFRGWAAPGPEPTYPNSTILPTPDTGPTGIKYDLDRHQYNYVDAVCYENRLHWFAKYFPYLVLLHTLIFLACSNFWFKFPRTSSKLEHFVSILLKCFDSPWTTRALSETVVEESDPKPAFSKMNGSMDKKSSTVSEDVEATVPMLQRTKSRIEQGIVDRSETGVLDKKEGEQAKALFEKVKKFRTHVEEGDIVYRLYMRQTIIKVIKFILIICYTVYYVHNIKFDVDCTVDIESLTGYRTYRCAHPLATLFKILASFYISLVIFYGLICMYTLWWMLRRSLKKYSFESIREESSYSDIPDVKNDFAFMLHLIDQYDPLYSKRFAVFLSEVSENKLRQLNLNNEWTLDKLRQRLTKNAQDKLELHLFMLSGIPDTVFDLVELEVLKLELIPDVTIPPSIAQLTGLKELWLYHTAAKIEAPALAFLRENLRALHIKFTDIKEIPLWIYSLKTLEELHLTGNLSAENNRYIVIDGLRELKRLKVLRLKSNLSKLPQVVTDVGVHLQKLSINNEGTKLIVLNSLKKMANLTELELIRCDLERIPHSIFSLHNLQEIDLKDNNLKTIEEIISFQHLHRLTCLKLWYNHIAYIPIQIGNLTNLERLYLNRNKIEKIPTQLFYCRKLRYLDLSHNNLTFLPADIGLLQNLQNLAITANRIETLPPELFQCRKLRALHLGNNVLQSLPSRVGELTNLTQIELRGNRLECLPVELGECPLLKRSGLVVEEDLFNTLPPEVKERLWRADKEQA
Put plainly: cell-based. The following applies: VRAC IC50, YFP fluorescence quenching, LN215 cells, hypotonic solution 5 min, n = 4.
The compound `O=c1oc2ccccc2c(O)c1C(c1cc([N+](=O)[O-])ccc1Cl)c1c(O)c2ccccc2oc1=O` [VI-101] had an IC50 of 3.3 µM. Still for that read-out and setting: as for `O=c1oc2ccccc2c(O)c1C(c1ccc(Cl)c([N+](=O)[O-])c1)c1c(O)c2ccccc2oc1=O` [VI-102], the figure is 0.8 µM; as for `O=c1oc2ccccc2c(O)c1C(c1cc([N+](=O)[O-])c(Cl)cc1Cl)c1c(O)c2ccccc2oc1=O` [VI-103], 3.3 µM. Regarding `O=c1oc2ccccc2c(O)c1C(c1cc([N+](=O)[O-])cc([N+](=O)[O-])c1Cl)c1c(O)c2ccccc2oc1=O` [VI-104], the IC50 was 30 µM. The same measure, in the same setting: as for `O=c1oc2ccccc2c(O)c1C(c1cccc([N+](=O)[O-])c1)c1c(O)c2ccccc2oc1=O` [VI-105], the figure is 4.9 µM.

`CN(C)c1ccc(C(c2c(O)c3ccccc3oc2=O)c2c(O)c3ccccc3oc2=O)cc1[N+](=O)[O-]` [VI-106]: half-maximal inhibition (IC50) was put at 1.3 µM. On the same count and under the same terms, as for `O=c1oc2ccccc2c(O)c1C(c1ccncc1)c1c(O)c2ccccc2oc1=O` [VI-108], the figure is 17 µM; as for `O=c1oc2ccccc2c(O)c1C(c1ccccc1Cl)c1c(O)c2ccccc2oc1=O` [VI-109], 0.9 µM. On the same count and under the same terms, in the case of `O=c1oc2ccccc2c(O)c1C(c1ccccc1F)c1c(O)c2ccccc2oc1=O` [VI-110] it was 0.58 µM and 0.6 µM. As for `CCN(CC)c1ccc(C(c2c(O)c3ccccc3oc2=O)c2c(O)c3ccccc3oc2=O)cc1` [VI-111], the IC50 came out at 2.9 µM.

`CC(C)Oc1ccc(C(c2c(O)c3ccccc3oc2=O)c2c(O)c3ccccc3oc2=O)cc1` [VI-112] came in with an IC50 of 1.4 µM. Still for that read-out and setting: as for `O=c1oc2ccccc2c(O)c1C(c1ccc2c(c1)OCO2)c1c(O)c2ccccc2oc1=O` [VI-113], the figure is 1.9 µM; as for `O=c1oc2ccccc2c(O)c1C(c1cc2c(cc1[N+](=O)[O-])OCO2)c1c(O)c2ccccc2oc1=O` [VI-114], 10.6 µM. On to `O=c1oc2ccccc2c(O)c1C(c1ccc(O)c(O)c1)c1c(O)c2ccccc2oc1=O` [VI-115], for which it took 47.9 µM to reach half-maximal inhibition (IC50). The same measure, in the same setting: in the case of `CCOc1cc(C(c2c(O)c3ccccc3oc2=O)c2c(O)c3ccccc3oc2=O)ccc1O` [VI-117] it was 6.8 µM; in that of `COc1ccc(C(c2c(O)c3ccccc3oc2=O)c2c(O)c3ccccc3oc2=O)cc1OC` [VI-118], 4 µM. The same measure, in the same setting: as for `CCOc1ccc(C(c2c(O)c3ccccc3oc2=O)c2c(O)c3ccccc3oc2=O)cc1OC` [VI-119], the figure is 12 µM. In the case of `COc1cc(OC)cc(C(c2c(O)c3ccccc3oc2=O)c2c(O)c3ccccc3oc2=O)c1` [VI-120], the IC50 came to 9.3 µM.

The target in another assay is T3, human CFTR (Homo sapiens, UniProt P13569).
T3 construct: expressed in transfected cells; host or cells: Fisher rat thyroid (FRT) cells
T3 sequence (P13569 whole entry): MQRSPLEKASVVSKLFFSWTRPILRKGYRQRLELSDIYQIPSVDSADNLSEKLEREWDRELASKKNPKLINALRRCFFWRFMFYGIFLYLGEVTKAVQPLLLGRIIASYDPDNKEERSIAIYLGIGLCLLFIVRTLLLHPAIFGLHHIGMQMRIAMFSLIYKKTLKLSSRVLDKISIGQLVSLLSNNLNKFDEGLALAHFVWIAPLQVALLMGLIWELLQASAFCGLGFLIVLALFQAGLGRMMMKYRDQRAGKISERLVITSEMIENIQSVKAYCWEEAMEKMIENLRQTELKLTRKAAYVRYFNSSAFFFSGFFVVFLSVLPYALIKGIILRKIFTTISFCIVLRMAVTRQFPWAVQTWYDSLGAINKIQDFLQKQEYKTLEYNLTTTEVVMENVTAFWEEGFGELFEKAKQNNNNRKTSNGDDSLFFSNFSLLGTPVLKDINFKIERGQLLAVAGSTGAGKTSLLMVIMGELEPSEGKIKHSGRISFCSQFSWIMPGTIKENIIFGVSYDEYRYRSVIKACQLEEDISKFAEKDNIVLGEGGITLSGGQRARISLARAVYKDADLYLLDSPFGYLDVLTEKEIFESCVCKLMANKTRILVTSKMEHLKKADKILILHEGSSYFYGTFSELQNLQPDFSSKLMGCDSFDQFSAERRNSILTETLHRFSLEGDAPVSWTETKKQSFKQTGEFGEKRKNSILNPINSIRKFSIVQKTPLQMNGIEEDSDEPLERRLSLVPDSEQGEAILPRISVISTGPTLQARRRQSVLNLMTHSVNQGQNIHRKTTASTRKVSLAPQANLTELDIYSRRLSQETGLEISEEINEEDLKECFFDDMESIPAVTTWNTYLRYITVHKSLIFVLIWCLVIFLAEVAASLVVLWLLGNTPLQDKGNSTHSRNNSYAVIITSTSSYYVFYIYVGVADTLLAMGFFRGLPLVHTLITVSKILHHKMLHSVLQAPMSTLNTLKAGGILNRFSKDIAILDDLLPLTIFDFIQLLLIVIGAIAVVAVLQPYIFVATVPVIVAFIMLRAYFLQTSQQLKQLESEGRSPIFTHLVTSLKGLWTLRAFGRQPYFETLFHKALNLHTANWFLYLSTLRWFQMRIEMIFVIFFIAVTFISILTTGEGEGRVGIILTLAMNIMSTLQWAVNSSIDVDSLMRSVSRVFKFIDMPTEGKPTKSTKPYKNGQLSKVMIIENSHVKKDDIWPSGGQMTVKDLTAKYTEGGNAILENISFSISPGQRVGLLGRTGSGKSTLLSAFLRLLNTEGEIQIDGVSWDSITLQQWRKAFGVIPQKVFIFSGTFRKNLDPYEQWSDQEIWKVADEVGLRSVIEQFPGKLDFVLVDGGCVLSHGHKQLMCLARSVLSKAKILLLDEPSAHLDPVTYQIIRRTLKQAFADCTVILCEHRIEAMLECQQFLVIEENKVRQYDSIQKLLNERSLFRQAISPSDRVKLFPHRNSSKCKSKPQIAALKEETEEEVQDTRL
Put plainly: Apical membrane current of CFTR in FRT cells expressing human CFTR. The assay is classed as cell-based. The following applies: 20 μM. The text has this: […]. (C) Summary of dose-response (mean ± S.E., n = 5). […]. (F) Summary of dose−response (mean ± S.E., n = 6).
Snapwell inserts containing ANO1(abc) or CFTR-expressing FRT cells were mounted in Ussing chambers (Physiological Instruments, San Diego, CA). The basolateral hemichamber was filled with buffer solution (in mM): 120 NaCl, 5 KCl, 1 MgCl2, 1 CaCl2, 10 D-glucose, 2.5 HEPES, and 25 NaHCO3 (pH 7.4). The apical hemichamber was filled with buffer solution (in mM): 60 NaCl, 60 Na-gluconate, 5 KCl, 1 MgCl2, 1 CaCl2, 10 D-glucose, 2.5 HEPES, and 25 NaHCO3 (pH 7.4). FRT cells were bathed for a 10 min stabilization period and gassed with 5% CO2 and 95% O2 at 37 °C. The apical membrane current was recorded with an EVC4000 Multi-Channel V/I Clamp (World Precision Instruments, Sarasota, FL, USA) and a PowerLab 4/35 (AD Instruments, Castle Hill, Australia).
For `O=C(O)c1ccc(/C=C2\SC(=S)N(c3cccc(C(F)(F)F)c3)C2=O)cc1` [CFTRinh−172], the “block of CFTR” value is reported as “completely blocked”.

The next assay deals with T2, VRAC.
Test: not given
Conditions: read-out: VRAC IC50; YFP fluorescence quenching, LN215 cells, hypotonic solution 5 min, n = 4.
On to `O=c1oc2ccccc2c(O)c1C(c1ccccc1)c1c(O)c2ccccc2oc1=O` [VI-107], for which the IC50 was 103 µM.
